Test results taken from the NIST ThermoML archive (doi:10.1016/j.jct.2016.08.001).
Numbers after ± are expanded uncertainties.

Experiment: xn = mol fraction of the nth substance listed
Conditions: 100 kPa, Liquid; for mass density: Vibrating tube method; for speed of sound: Frequency=3 MHz, Sing-around technique in a fixed-path interferometer

Nc1ccccc1 [aniline] + CCOC(=O)OCC
Conditions | mass density, 303.15 K [kg/m3] | mass density, 308.15 K [kg/m3] | mass density, 313.15 K [kg/m3] | mass density, 318.15 K [kg/m3] | mass density, 323.15 K [kg/m3] | speed of sound, 308.15 K [m/s] | speed of sound, 313.15 K [m/s] | speed of sound, 318.15 K [m/s] | speed of sound, 323.15 K [m/s]
x2 = 0 | 1012.7 ± 1 | 1008.4 ± 1 | 1004.1 ± 1 | 999.7 ± 1 | 995.4 ± 1 | 1598.3 ± 1.5 | 1579.1 ± 1.5 | 1560 ± 1.5 | 1540.9 ± 1.5
x2 = 0.073 | 1009.8 ± 1 | 1005.4 ± 1 | 1001 ± 1 | 996.5 ± 1 | 992.1 ± 1 | 1555.8 ± 1.5 | 1536.6 ± 1.5 | 1517.6 ± 1.5 | 1498.2 ± 1.5
x2 = 0.1652 | 1005.7 ± 1 | 1001.2 ± 1 | 996.6 ± 1 | 992.1 ± 1 | 987.6 ± 1 | 1504.6 ± 1.5 | 1485.3 ± 1.5 | 1466 ± 1.5 | 1446.8 ± 1.5
x2 = 0.2537 | 1001.8 ± 1 | 997.1 ± 1 | 992.5 ± 1 | 987.9 ± 1 | 983.2 ± 1 | 1458.5 ± 1.5 | 1439.1 ± 1.5 | 1419.8 ± 1.5 | 1400.5 ± 1.5
x2 = 0.3387 | 997.9 ± 1 | 993.2 ± 1 | 988.5 ± 1 | 983.7 ± 1 | 979 ± 1 | 1416.8 ± 1.5 | 1397.4 ± 1.5 | 1378 ± 1.5 | 1358.7 ± 1.5
x2 = 0.4432 | 993.2 ± 1 | 988.3 ± 1 | 983.5 ± 1 | 978.6 ± 1 | 973.7 ± 1 | 1368.5 ± 1.5 | 1349 ± 1.5 | 1329.5 ± 1.5 | 1310.1 ± 1.5
x2 = 0.5468 | 988.1 ± 1 | 983.1 ± 1 | 978.1 ± 1 | 973.1 ± 1 | 968.1 ± 1 | 1321.7 ± 1.5 | 1302 ± 1.5 | 1282.5 ± 1.5 | 1263 ± 1.5
x2 = 0.6546 | 982.6 ± 1 | 977.5 ± 1 | 972.4 ± 1 | 967.2 ± 1 | 962 ± 1 | 1276 ± 1.5 | 1256.3 ± 1.5 | 1236.6 ± 1.5 | 1217.1 ± 1.5
x2 = 0.7559 | 977.3 ± 1 | 972 ± 1 | 966.8 ± 1 | 961.4 ± 1 | 956.1 ± 1 | 1234.1 ± 1.5 | 1214.2 ± 1.5 | 1194.5 ± 1.5 | 1174.9 ± 1.5
x2 = 0.884 | 970.5 ± 1 | 965.1 ± 1 | 959.8 ± 1 | 954.3 ± 1 | 948.8 ± 1 | 1182.1 ± 1.5 | 1162.1 ± 1.5 | 1142.2 ± 1.5 | 1122.5 ± 1.5
